Test: Inhibition of bovine liver beta-glucosidase

C[C@@H]1CNC[C@@H](O)[C@@H](O)[C@@H]1O
IC50: 244 µM

Source: BindingDB's records for doi:10.1016/j.bmc.2010.09.053 (Umr Cnrs 7201, 2012)
